As a reminder, the IC50 is the concentration that gives 50% inhibition. Read a low IC50 as greater potency in that assay.

Bounds are passed on as bounds.

The assay addresses T1, active p38 alpha enzyme (Upstate Biotechnology) (Homo sapiens, UniProt Q16539).
T1 construct: purchased Upstate Biotechnology
Kind of assay: p38α biochemical assay (ATP turnover, luminescent detection, Cambrex PKlight). As to conditions: p38α kinase; Table 1 Biological Activity. An outline of the steps: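 In this kinase reaction, p38α used MapkapK2 as phosphorylation substrate at low ATP (1.4 uM final) over 2 hours at 30C, and activity was followed as ATP turnover by luminescence.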

T1 sequence (Q16539 whole entry): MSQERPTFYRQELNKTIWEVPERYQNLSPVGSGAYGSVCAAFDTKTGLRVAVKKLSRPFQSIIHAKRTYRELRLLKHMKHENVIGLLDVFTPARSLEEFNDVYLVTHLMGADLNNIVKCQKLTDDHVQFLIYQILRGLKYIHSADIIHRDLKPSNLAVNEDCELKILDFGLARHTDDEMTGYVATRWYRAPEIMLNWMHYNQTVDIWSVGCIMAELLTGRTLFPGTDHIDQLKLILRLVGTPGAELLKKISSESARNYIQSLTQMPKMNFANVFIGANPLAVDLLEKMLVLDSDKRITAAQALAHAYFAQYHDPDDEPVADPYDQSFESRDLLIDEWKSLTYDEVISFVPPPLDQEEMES

In turn, `CC(C)NC(=O)c1csc(-c2c(-c3ccc(F)cc3)noc2CN2CCN(c3ccccc3Cl)CC2)n1` [Example 1627] returned an IC50 above 1000 nM.
The molecule `COc1ccc(N2CCN(Cc3onc(-c4ccc(F)cc4)c3-c3nc(C(=O)NC(C)C)cs3)CC2)cc1OC` [Example 1628] gave a 50% inhibitory concentration (IC50) above 1000 nM.
Turning to `CC(C)NC(=O)c1csc(-c2c(-c3ccc(F)cc3)noc2CN2CCCC(c3ccc(C(F)(F)F)cc3)C2)n1` (stereo not shown) [Example 1629], the concentration for half-maximal inhibition (IC50) was above 1000 nM.
Take `CC(C)NC(=O)c1csc(-c2c(-c3ccc(F)cc3)noc2CNc2ccccc2)n1` [Example 1630]: the IC50 was above 1000 nM.
Regarding `Cc1cccc(NCc2onc(-c3ccc(F)cc3)c2-c2nc(C(=O)NC(C)C)cs2)c1` [Example 1631], the 50% inhibitory concentration (IC50) was above 1000 nM.
For `Cc1ccc(NCc2onc(-c3ccc(F)cc3)c2-c2nc(C(=O)NC(C)C)cs2)cc1` [Example 1632], the IC50 was above 1000 nM.
On to `Cc1ccccc1NCc1onc(-c2ccc(F)cc2)c1-c1nc(C(=O)NC(C)C)cs1` [Example 1633], for which the IC50 was above 1000 nM.
The molecule `Cc1ccc(NCc2onc(-c3ccc(F)cc3)c2-c2nc(C(=O)NC(C)C)cs2)nc1` [Example 1634] came in with an IC50 above 1000 nM.
In the case of `Cc1cccc(NCc2onc(-c3ccc(F)cc3)c2-c2nc(C(=O)NC(C)C)cs2)n1` [Example 1635], the IC50 is above 1000 nM.
Molecule `Cc1ccnc(NCc2onc(-c3ccc(F)cc3)c2-c2nc(C(=O)NC(C)C)cs2)c1` [Example 1636] had a half-inhibitory concentration (IC50) above 1000 nM.
Consider `Cc1cccnc1NCc1onc(-c2ccc(F)cc2)c1-c1nc(C(=O)NC(C)C)cs1` [Example 1637], for which the half-inhibitory concentration (IC50) was above 1000 nM.
The molecule `CC(C)NC(=O)c1csc(-c2c(-c3ccc(F)cc3)noc2CNc2ccccc2F)n1` [Example 1638] came in with a 50% inhibitory concentration (IC50) above 1000 nM.
Consider `CC(C)NC(=O)c1csc(-c2c(-c3ccc(F)cc3)noc2CNc2ccc(F)cc2)n1` [Example 1639], for which the IC50 was above 1000 nM.
The result for `Cc1ccc(C)c(NCc2onc(-c3ccc(F)cc3)c2-c2nc(C(=O)NC(C)C)cs2)c1` [Example 1640] reads above 1000 nM; that for `Cc1ccc(NCc2onc(-c3ccc(F)cc3)c2-c2nc(C(=O)NC(C)C)cs2)cc1C` [Example 1641], above 1000 nM.
`CCc1ccccc1NCc1onc(-c2ccc(F)cc2)c1-c1nc(C(=O)NC(C)C)cs1` [Example 1642] displayed a 50% inhibitory concentration (IC50) above 1000 nM.
The molecule `Cc1cccc(NCc2onc(-c3ccc(F)cc3)c2-c2nc(C(=O)NC(C)C)cs2)c1C` [Example 1644] yielded an IC50 above 1000 nM.
To `Cc1ccc(NCc2onc(-c3ccc(F)cc3)c2-c2nc(C(=O)NC(C)C)cs2)c(C)c1` [Example 1645] belongs above 1000 nM; to `Cc1cc(C)cc(NCc2onc(-c3ccc(F)cc3)c2-c2nc(C(=O)NC(C)C)cs2)c1` [Example 1646], above 1000 nM.
As for `COc1cccc(NCc2onc(-c3ccc(F)cc3)c2-c2nc(C(=O)NC(C)C)cs2)c1` [Example 1647], the IC50 is above 1000 nM.
With `COc1ccc(NCc2onc(-c3ccc(F)cc3)c2-c2nc(C(=O)NC(C)C)cs2)cc1` [Example 1648], the IC50 is above 1000 nM.
On to `COc1ccccc1NCc1onc(-c2ccc(F)cc2)c1-c1nc(C(=O)NC(C)C)cs1` [Example 1649], for which the IC50 was above 1000 nM.
On to `COc1ccncc1NCc1onc(-c2ccc(F)cc2)c1-c1nc(C(=O)NC(C)C)cs1` [Example 1650], for which the concentration for half-maximal inhibition (IC50) was above 1000 nM.
For `Cc1ccc(NCc2onc(-c3ccc(F)cc3)c2-c2nc(C(=O)NC(C)C)cs2)cc1F` [Example 1651], the IC50 was above 1000 nM.
Take `Cc1c(F)cccc1NCc1onc(-c2ccc(F)cc2)c1-c1nc(C(=O)NC(C)C)cs1` [Example 1652]: the IC50 was above 1000 nM.
As for `CC(C)NC(=O)c1csc(-c2c(-c3ccc(F)cc3)noc2CNc2cc(F)cc(F)c2)n1` [Example 1653], the concentration for half-maximal inhibition (IC50) was above 1000 nM.
With `CC(C)NC(=O)c1csc(-c2c(-c3ccc(F)cc3)noc2CNc2ccc(F)cc2F)n1` [Example 1654], the IC50 is above 1000 nM.
The molecule `CC(C)NC(=O)c1csc(-c2c(-c3ccc(F)cc3)noc2CNc2ccc3c(c2)CCC3)n1` [Example 1656] registered a half-maximal inhibitory concentration (IC50) above 1000 nM.
Regarding `CC(C)NC(=O)c1csc(-c2c(-c3ccc(F)cc3)noc2CNc2ccccc2C(C)C)n1` [Example 1657], the IC50 is above 1000 nM.
To `CC(=O)c1cccc(NCc2onc(-c3ccc(F)cc3)c2-c2nc(C(=O)NC(C)C)cs2)c1` [Example 1658] belongs at most 1000 nM; to `CC(=O)c1ccc(NCc2onc(-c3ccc(F)cc3)c2-c2nc(C(=O)NC(C)C)cs2)cc1` [Example 1659], above 1000 nM; to `CCc1cccc(C)c1NCc1onc(-c2ccc(F)cc2)c1-c1nc(C(=O)NC(C)C)cs1` [Example 1660], above 1000 nM.
`Cc1cc(C)c(NCc2onc(-c3ccc(F)cc3)c2-c2nc(C(=O)NC(C)C)cs2)c(C)c1` [Example 1661] yielded an IC50 above 1000 nM.
For the molecule `CC(C)NC(=O)c1csc(-c2c(-c3ccc(F)cc3)noc2CNc2ccc3c(c2)OCO3)n1` [Example 1662], the IC50 was above 1000 nM.
`COc1ccc(NCc2onc(-c3ccc(F)cc3)c2-c2nc(C(=O)NC(C)C)cs2)c(C)c1` [Example 1663] had a concentration for half-maximal inhibition (IC50) above 1000 nM.
The result for `CCOc1cccc(NCc2onc(-c3ccc(F)cc3)c2-c2nc(C(=O)NC(C)C)cs2)c1` [Example 1664] reads above 1000 nM.
`CCOc1ccccc1NCc1onc(-c2ccc(F)cc2)c1-c1nc(C(=O)NC(C)C)cs1` [Example 1665]: the IC50 is above 1000 nM.
In the case of `CSc1ccccc1NCc1onc(-c2ccc(F)cc2)c1-c1nc(C(=O)NC(C)C)cs1` [Example 1666], the IC50 was above 1000 nM.
In turn, `Cc1c(Cl)cccc1NCc1onc(-c2ccc(F)cc2)c1-c1nc(C(=O)NC(C)C)cs1` [Example 1667] gave an IC50 above 1000 nM.
For `Cc1ccc(NCc2onc(-c3ccc(F)cc3)c2-c2nc(C(=O)NC(C)C)cs2)cc1Cl` [Example 1668], the 50% inhibitory concentration (IC50) was above 1000 nM.
As for `CC(C)NC(=O)c1csc(-c2c(-c3ccc(F)cc3)noc2CNc2cnc3ccccc3c2)n1` [Example 1669], the IC50 was above 1000 nM.
The result for `CC(C)NC(=O)c1csc(-c2c(-c3ccc(F)cc3)noc2CNc2cc(F)c(F)cc2F)n1` [Example 1670] reads above 1000 nM.
On to `CC(C)NC(=O)c1csc(-c2c(-c3ccc(F)cc3)noc2CNC2CCCc3ccccc32)n1` (stereo not shown) [Example 1671], for which the IC50 was above 1000 nM.
The result for `CC(C)NC(=O)c1csc(-c2c(-c3ccc(F)cc3)noc2CNc2ccccc2C(C)(C)C)n1` [Example 1672] reads above 1000 nM; that for `Cc1cccc(C(C)C)c1NCc1onc(-c2ccc(F)cc2)c1-c1nc(C(=O)NC(C)C)cs1` [Example 1673], above 1000 nM.
Take `CC(C)NC(=O)c1csc(-c2c(-c3ccc(F)cc3)noc2CNc2ccc3ncsc3c2)n1` [Example 1674]: the concentration for half-maximal inhibition (IC50) is above 1000 nM.
To `CC(=O)Nc1ccc(NCc2onc(-c3ccc(F)cc3)c2-c2nc(C(=O)NC(C)C)cs2)cc1` [Example 1675] belongs above 1000 nM; to `CC(=O)Nc1ccc(NCc2onc(-c3ccc(F)cc3)c2-c2nc(C(=O)NC(C)C)cs2)cn1` [Example 1676], above 1000 nM.
On to `CC(C)NC(=O)c1csc(-c2c(-c3ccc(F)cc3)noc2CNc2ccc3c(c2)OCCO3)n1` [Example 1677], for which the IC50 was above 1000 nM.
The result for `CC(C)NC(=O)c1csc(-c2c(-c3ccc(F)cc3)noc2CNc2ccccc2-n2cccc2)n1` [Example 1679] reads above 1000 nM; that for `CC(C)NC(=O)c1csc(-c2c(-c3ccc(F)cc3)noc2CNc2ccc(C(F)(F)F)cc2)n1` [Example 1680], above 1000 nM.
In turn, `CC(C)NC(=O)c1csc(-c2c(-c3ccc(F)cc3)noc2CNc2cccc(C(F)(F)F)c2)n1` [Example 1681] registered an IC50 above 1000 nM.
With `CC(C)NC(=O)c1csc(-c2c(-c3ccc(F)cc3)noc2CNc2ccc(Cl)c(Cl)c2)n1` [Example 1682], the half-inhibitory concentration (IC50) was above 1000 nM.
`Cc1cccc(C(C)(C)C)c1NCc1onc(-c2ccc(F)cc2)c1-c1nc(C(=O)NC(C)C)cs1` [Example 1683] gave an IC50 above 1000 nM.
As for `CC(C)NC(=O)c1csc(-c2c(-c3ccc(F)cc3)noc2CNc2ccc(N(C)C)cc2)n1` [Example 1684], the half-maximal inhibitory concentration (IC50) was above 1000 nM.
As for `CC(C)NC(=O)c1csc(-c2c(-c3ccc(F)cc3)noc2CNc2ccccc2-c2ccccc2)n1` [Example 1685], the IC50 was above 1000 nM.
`CC(C)NC(=O)c1csc(-c2c(-c3ccc(F)cc3)noc2CNc2ccc(OC(F)(F)F)cc2)n1` [Example 1686] displayed an IC50 above 1000 nM.
With `CC(C)NC(=O)c1csc(-c2c(-c3ccc(F)cc3)noc2CNc2c(C(C)C)cccc2C(C)C)n1` [Example 1687], the concentration for half-maximal inhibition (IC50) is above 1000 nM.
Molecule `CC(C)NC(=O)c1csc(-c2c(-c3ccc(F)cc3)noc2CNc2ccc(F)cc2C(F)(F)F)n1` [Example 1688] had an IC50 above 1000 nM.
Turning to `CC(C)NC(=O)c1csc(-c2c(-c3ccc(F)cc3)noc2CNc2cc(C(F)(F)F)ccc2F)n1` [Example 1689], the IC50 was above 1000 nM.
Molecule `CC(C)NC(=O)c1csc(-c2c(-c3ccc(F)cc3)noc2CNc2ccc(F)c(C(F)(F)F)c2)n1` [Example 1690] showed an IC50 above 1000 nM.
With `CCOc1ccc(OCC)c(NCc2onc(-c3ccc(F)cc3)c2-c2nc(C(=O)NC(C)C)cs2)c1` [Example 1691], the 50% inhibitory concentration (IC50) is above 1000 nM.
As for `CC(C)NC(=O)c1csc(-c2c(-c3ccc(F)cc3)noc2CNc2cc(Cl)c(Cl)c(Cl)c2)n1` [Example 1692], the IC50 was above 1000 nM.
With `CC(C)NC(=O)c1csc(-c2c(-c3ccc(F)cc3)noc2CNc2ccccc2C(=O)c2ccccc2)n1` [Example 1693], the half-maximal inhibitory concentration (IC50) was above 1000 nM.
As for `CC(C)NC(=O)c1csc(-c2c(-c3ccc(F)cc3)noc2CNc2ccccc2COc2ccccc2)n1` [Example 1694], the IC50 was above 1000 nM.
As to `COc1ccc(-c2ccccc2)cc1NCc1onc(-c2ccc(F)cc2)c1-c1nc(C(=O)NC(C)C)cs1` [Example 1695], the half-maximal inhibitory concentration (IC50) is at most 1000 nM.
Molecule `CC(C)NC(=O)c1csc(-c2c(-c3ccc(F)cc3)noc2CNc2ncccc2OCc2ccccc2)n1` [Example 1696] displayed a half-inhibitory concentration (IC50) above 1000 nM.

These data come from US20060252807A1, “Novel ortho-terphenyl inhibitors of p38 kinase and methods of treating inflammatory disorders” (Kalypsys, Inc., priority 2005, published 2006).
